Columns and labels:
Experiment in all cases: Tyrosine kinase activity inhibition rate in cell membrane fraction (Poly-Glu4-Tyr substrate)
Assay type in all cases: biochemical
[1] = test system: tyrosine kinase in cell membrane fraction of BT-483; conditions: 25 μM kinase inhibitor, 25 μM ATP
Experimental: (§1) Breast cancer cell lines shown in Table 3 were cultured in a 150 mm dish so as to be about 80% confluent, the cells were recovered using PBS and a scraper, and a cell pellet was obtained by centrifugal operation (900×g, for 5 minutes, at 4° C.). The pellet was frozen with liquid nitrogen and stored at −80° C. until preparation of the measurement sample.
(§2) 500 μl of NP40 (−) solubilized buffer (20 mM HEPES (pH 7.4)), (w/v) % glycerol, 0.2% protease inhibitor cocktail (#P8340: Sigma-Aldrich (product composition: 104 mM AEBSF, 80 μM aprotinin, 4 mM bestatin, 1.4 mM E-64, 2 mM leupeptin, 1.5 mM Pepstatin A), 50 mM NaF and 200 μM Na3VO4) was added to the cell pellet, followed by stirring for 2 seconds three times using a vortex mixer. After being allowed to stand for 10 minutes, the soluble fraction was removed by centrifugal operation (at 20000×g, for 30 minutes, at 4° C.). The obtained pellet was resuspended in 500 μl of NP40 (−) solubilized buffer, the soluble fraction was again removed by centrifugal operation (at 20000×g, for 20 minutes, at 4° C.), and the pellet was washed. The pellet was resuspended by adding 500 μl of NP40 (+) solubilized buffer (a buffer prepared by adding NP-40 to the NP40 (−) solubilized buffer at a final concentration of 1%) to the pellet, pipetting fifty times, and vortexing for 2 seconds three times. After being allowed to stand for 10 minutes, a cell membrane fraction containing a membrane protein was obtained by centrifugal operation (at 20000×g, for 40 minutes, at 4° C.). The protein concentration of the fraction was measured by DC protein assay (#500-0116 JA: Bio-Rad) and the fraction was used as a sample for kinase activity measurement. The sample was frozen with liquid nitrogen and stored at −80° C. until used for the following kinase activity measurement.
(§3) NeutrAvidin Coated Plates (HBC) (96 white plate; #15509: Pierce) were washed three times with 300 μl of TBS-T (20 mM Tris-HCl (pH 7.4)), 150 mM NaCl, 0.1% Tween), and then 100 μl of Poly-Glu4-Tyr biotin conjugate (#12440: Upstate) which had been diluted to 1 μg/ml with TBS (20 mM Tris-HCl (pH 7.4), 150 mM NaCl) was added to the wells. After shaking at 37° C. and 400 rpm for 90 minutes, the wells were washed with 300 μl of TBS-T three times and a measuring plate was obtained.
(§4) The measurement sample was diluted with a kinase buffer (20 mM HEPES (pH 7.4), 25 mM MgCl2, 1.25 mM MnCl2, 250 μM Na3VO4, 12.5 (w/v) % glycerol) so as to adjust the protein concentration to 6.25 μg/ml. The diluted measurement sample was transferred to wells of a 96 well V bottom plate. A DMSO solution (inhibitor concentration: 5 mM) containing one type of tyrosine kinase inhibitors (Inhibitors 1 to 10 shown in Table 6) was added to the wells at a ratio of 1:160 based on the diluted measurement sample solution, followed by mixing thereof. As the control, DMSO was added to the diluted measurement sample at the same ratio as the solution of the inhibitor. The used tyrosine kinase inhibitors are represented as Inhibitors 1 to 10 in Table 6.
(§5) After addition of the inhibitors, a mixed solution of the measurement sample and the inhibitor was allowed to stand at room temperature for 10 minutes. 40 μl of the mixed solution was transferred to wells of the measuring plate and 10 μl of an ATP solution (20 mM HEPES (pH 7.4), […]) as the phosphate group donor was added to the wells.
(§6) The composition of the solution in the wells is as follows: protein concentration: 5 μg/ml, 20 mM HEPES (pH 7.4), 20 mM MgCl2, 1 mM MnCl2, 200 μM Na3VO4, 10 (w/v) % glycerol, 25 μM ATP, 25 μM kinase inhibitor.
(§7) After shaking the measuring plate at 37° C. and 400 rpm for 60 minutes, the solution was removed from the measuring plate, and the wells were washed with 300 μl of TBS-T three times. 100 μl of Starting Block T20 (TBS) (#37543: Pierce) as a blocking solution was added to the wells, followed by blocking at 37° C. and 400 rpm for 10 minutes. The blocking solution was removed from the measuring plate. […]

[2] = test system: tyrosine kinase in cell membrane fraction of HCC1419; conditions: 25 μM kinase inhibitor, 25 μM ATP
Experimental: as §1, §2, §3, §4, §5, §6, §7

[3] = test system: tyrosine kinase in cell membrane fraction of HCC1569; conditions: 25 μM kinase inhibitor, 25 μM ATP
Experimental: as §1, §2, §3, §4, §5, §6, §7

[4] = test system: tyrosine kinase in cell membrane fraction of HCC202; conditions: 25 μM kinase inhibitor, 25 μM ATP
Experimental: as §1, §2, §3, §4, §5, §6, §7

[5] = test system: tyrosine kinase in cell membrane fraction of MCF7; conditions: 25 μM kinase inhibitor, 25 μM ATP
Experimental: as §1, §2, §3, §4, §5, §6, §7

[6] = test system: tyrosine kinase in cell membrane fraction of MDA-MB-157; conditions: 25 μM kinase inhibitor, 25 μM ATP
Experimental: as §1, §2, §3, §4, §5, §6, §7

[7] = test system: tyrosine kinase in cell membrane fraction of MDA-MB-231; conditions: 25 μM kinase inhibitor, 25 μM ATP
Experimental: as §1, §2, §3, §4, §5, §6, §7

[8] = test system: tyrosine kinase in cell membrane fraction of MDA-MB-436; conditions: 25 μM kinase inhibitor, 25 μM ATP
Experimental: as §1, §2, §3, §4, §5, §6, §7

[9] = test system: tyrosine kinase in cell membrane fraction of T47D; conditions: 25 μM kinase inhibitor, 25 μM ATP
Experimental: as §1, §2, §3, §4, §5, §6, §7

[10] = test system: tyrosine kinase in cell membrane fraction of UACC812; conditions: UACC812; 25 μM kinase inhibitor, 25 μM ATP
Experimental: as §1, §2, §3, §4, §5, §6, §7

[11] = test system: tyrosine kinase in cell membrane fraction of UACC893; conditions: UACC893; 25 μM kinase inhibitor, 25 μM ATP
Experimental: as §1, §2, §3, §4, §5, §6, §7

| Structure (SMILES) | Inhibition rate [1] [%] | Inhibition rate [2] [%] | Inhibition rate [3] [%] | Inhibition rate [4] [%] | Inhibition rate [5] [%] | Inhibition rate [6] [%] | Inhibition rate [7] [%] | Inhibition rate [8] [%] | Inhibition rate [9] [%] | Inhibition rate [10] [%] | Inhibition rate [11] [%] |
| --- | --- | --- | --- | --- | --- | --- | --- | --- | --- | --- | --- |
| Cc1[nH]c(/C=C2\C(=O)Nc3ccc(S(=O)(=O)N(C)c4cccc(Cl)c4)cc32)c(C)c1C(=O)N1CCN(C)CC1 [Inhibitor 9] | 68.6 | 70.7 | 67.0 | 69.1 | 64.3 | 56.8 | 68.0 | 74.0 | 42.5 | 78.1 | 56.9 |
| Cc1cc(F)c(Nc2ncnc3cc(OCc4ccccc4)ccc23)cc1O.Cl [Inhibitor 8] | 27.2 | 14.7 | 15.5 | 11.9 | 45.7 | 8.3 | 12.8 | 12.1 | 38.1 | 21.6 | 3.3 |
| COc1cc2c(cc1OC)-c1[nH]nc(Nc3cccc(F)c3)c1C2 [Inhibitor 6] | 62.9 | 33.5 | 57.8 | 27.1 | 44.4 | 49.0 | 45.7 | 36.1 | 37.5 | 61.4 | 28.0 |
| CN(C)c1cc2c(Nc3ccc4c(cnn4Cc4ccccc4)c3)ncnc2cn1 [Inhibitor 4, N4-(1-benzyl-1H-indazol-5-yl)-N6,N6-dimethyl-pyrido-[3,4-d]-pyrimidine-4,6-diamine] | 52.7 | 23.8 | 37.9 | 21.3 | 12.1 | 29.2 | 38.9 | 26.3 | 27.0 | 59.4 | −3.1 |
| COc1cc2ncnc(Nc3cccc(Cl)c3)c2cc1OC [Inhibitor 1] | 54.7 | 34.9 | 44.7 | 29.7 | 48.0 | 45.0 | 56.4 | 33.9 | 29.1 | 49.3 | 21.2 |
| CS(=O)(=O)CCNCc1nc(-c2ccc3ncnc(Nc4ccc(OCc5cccc(F)c5)c(Cl)c4)c3c2)cs1.Cl.Cl [Inhibitor 5, N-[3-chloro-4-[(3-fluorophenyl)methoxy]phenyl]-6-[2-[[[2-(methylsulfonyl)ethyl]amino]methyl]-4-thiazolyl]-4-quinazolineamine dihydrochloride] | 66.9 | 63.6 | 60.7 | 66.2 | 75.4 | 56.1 | 58.2 | 68.5 | 50.9 | 80.4 | 48.4 |
| CN1CCC(Nc2ncc3ncnc(Nc4ccc(F)c(Cl)c4)c3n2)CC1 [Inhibitor 2] | 40.3 | 6.2 | 25.0 | 7.7 | 19.9 | 14.3 | 23.5 | 19.0 | 7.7 | 30.3 | 4.1 |
| CCCNC(=O)Nc1ccc(Oc2ncnc3cc(OC)c(OC)cc23)cc1Cl [Inhibitor 7] | 17.3 | 28.4 | 16.6 | 33.4 | 59.1 | 11.2 | 9.7 | 23.1 | 22.0 | 28.5 | 23.9 |
| COc1cc2ncnc(Nc3ccc(OCc4ccccc4)cc3)c2cc1OC [Inhibitor 3, 4-(4-benzyloxyanilino)-6,7-dimethoxyquinazoline] | 68.5 | 43.3 | 42.3 | 24.5 | 11.3 | 38.0 | 42.0 | 48.7 | 30.2 | 66.6 | 22.9 |

Source: US20110318768A1, “METHOD FOR DETERMINING SENSITIVITY OF TUMOR CELLS TO TYROSINE KINASE INHIBITOR AND COMPUTER PROGRAM PRODUCT” (SYSMEX CORPORATION, priority 2010, published 2011)
